Earlier results as cited in patent US7390505B2, “Nanoparticulate topiramate formulations” (Elan Pharma International, Ltd., priority 2003, dated 2008).

How the values were obtained:
[1] = human, in vivo
[2] = not given; remark: listed apart in the source

CC1(C)O[C@@H]2[C@@H](CO[C@@]3(COS(N)(=O)=O)OC(C)(C)O[C@@H]23)O1 [Topiramate, 2,3:4,5-Di-O-isopropylidene-β-D-fructopyranose sulfamate]
patients who withdrew because of side effects (96 mg/d or 192 mg/d): 19% | withdrawal due to depression (in vivo): 3% | withdrawal due to difficulty with memory (in vivo): 3% | withdrawal due to paraesthesia (in vivo): 5 % of patients | incidence of ataxia, impaired concentration, confusion, dizziness, fatigue, paraesthesia, somnolence and abnormal thinking [1]: ≥ 5 % of patients | solubility in organic solvents ([2]; acetone, chloroform, dimethylsulfoxide, and ethanol): freely soluble | solubility in alkaline solutions ([2]; solutions containing sodium hydroxide or sodium phosphate, pH of 9 to 10): most soluble
